In patent US10669242B2 (priority 2016, dated 2020):

Each compound was assayed against T1, recombinant glucosyltransferase domain of C. difficile Toxin B/TcdB (Clostridioides difficile, UniProt P18177) (assay: biochemical). Conditions: not given.
T1 construct: 6-His (C); purchased R&D Systems 6246-GT
T1 sequence (P18177 1-543): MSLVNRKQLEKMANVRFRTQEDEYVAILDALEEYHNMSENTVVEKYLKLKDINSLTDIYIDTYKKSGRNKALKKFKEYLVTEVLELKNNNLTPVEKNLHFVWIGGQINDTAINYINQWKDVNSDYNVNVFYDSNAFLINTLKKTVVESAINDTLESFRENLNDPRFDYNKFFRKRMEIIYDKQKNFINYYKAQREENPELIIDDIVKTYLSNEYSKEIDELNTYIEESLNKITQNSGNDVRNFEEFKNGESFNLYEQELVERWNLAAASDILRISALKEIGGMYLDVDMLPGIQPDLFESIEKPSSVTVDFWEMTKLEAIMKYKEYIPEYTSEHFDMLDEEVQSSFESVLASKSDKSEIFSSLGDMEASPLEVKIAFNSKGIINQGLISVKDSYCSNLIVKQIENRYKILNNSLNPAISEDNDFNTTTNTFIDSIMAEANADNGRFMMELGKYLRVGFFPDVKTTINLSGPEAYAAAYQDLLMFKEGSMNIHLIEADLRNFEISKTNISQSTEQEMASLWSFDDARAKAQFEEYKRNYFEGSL

CC(C)c1ccc(NC(=O)c2ccc(CN3C(=O)c4ccc(Cl)cc4NC(=O)[C@H]3C)cc2)nc1 [Example 4az, (R)-4-((8-chloro-3-methyl-2,5-dioxo-2,3-dihydro-1H-benzo[e][1,4]diazepin-4(5H)-yl)methyl)-N-(5-isopropylpyridin-2-yl)benzamide] and COc1ccc(NC(=O)c2ccc(CN3C(=O)c4ccc(Cl)cc4NC(=O)[C@H]3C)cc2)nc1 [Example 4ba, (R)-4-((8-chloro-3-methyl-2,5-dioxo-2,3-dihydro-1H-benzo[e][1,4]diazepin-4(5H)-yl)methyl)-N-(5-methoxypyridin-2-yl)benzamide] fall in the same range of IC50: 100 to 999 nM for the first, 100 to 999 nM for the second.

C[C@@H]1C(=O)Nc2cc(Cl)ccc2C(=O)N1Cc1ccc(C(=O)Nc2cc3ccccc3cn2)cc1 [Example 4bb, (R)-4-((8-chloro-3-methyl-2,5-dioxo-2,3-dihydro-1H-benzo[e][1,4]diazepin-4(5H)-yl)methyl)-N-(isoquinolin-3-yl)benzamide] and C[C@@H]1C(=O)Nc2cc(Cl)ccc2C(=O)N1Cc1ccc(C(=O)Nc2ccc(-c3ccccc3)cn2)cc1 [Example 4bc, (R)-4-((8-chloro-3-methyl-2,5-dioxo-2,3-dihydro-1H-benzo[e][1,4]diazepin-4(5H)-yl)methyl)-N-(5-phenylpyridin-2-yl)benzamide] fall in the same range of IC50: 100 to 999 nM for the first, 100 to 999 nM for the second.

O=C(Nc1ccccn1)c1ccc(CN2C(=O)c3ccc(Br)cc3NC(=O)[C@H]2Cc2cccnc2)cc1 [Example 4bd, (R)-4-((8-bromo-2,5-dioxo-3-(pyridin-3-ylmethyl)-2,3-dihydro-1H-benzo[e][1,4]diazepin-4(5H)-yl)methyl)-N-(pyridin-2-yl)benzamide] and O=C(Nc1ccccn1)c1ccc(CN2C(=O)c3ccc(Cl)cc3NC(=O)C2Cc2cnccn2)cc1 (stereo not shown) [Example 4bu, 4-((8-chloro-2,5-dioxo-3-(pyrazin-2-ylmethyl)-2,3-dihydro-1H-benzo[e][1,4]diazepin-4(5H)-yl)methyl)-N-(pyridin-2-yl)benzamide] cannot be ordered by IC50: less than 100 nM for the first, less than 100 nM for the second.

Compared with COc1cnc(NC(=O)c2ccc(CN3C(=O)c4ccc(Cl)cc4NC(=O)[C@H]3C)cc2)nc1 [Example 4be, (R)-4-((8-chloro-3-methyl-2,5-dioxo-2,3-dihydro-1H-benzo[e][1,4]diazepin-4(5H)-yl)methyl)-N-(5-methoxypyrimidin-2-yl)benzamide], Cc1cnc(NC(=O)c2ccc(CN3C(=O)c4ccc(Cl)cc4NC(=O)[C@H]3C)cc2)cn1 [Example 4bi, (R)-4-((8-chloro-3-methyl-2,5-dioxo-2,3-dihydro-1H-benzo[e][1,4]diazepin-4(5H)-yl)methyl)-N-(5-methylpyrazin-2-yl)benzamide] is higher in IC50: less than 100 nM for the first, 100 to 999 nM for the second. The first is the more potent here.

C[C@@H]1C(=O)Nc2cc(Cl)ccc2C(=O)N1Cc1ccc(C(=O)Nc2ccc(N3CCOCC3)cn2)cc1 [Example 4bf, (R)-4-((8-chloro-3-methyl-2,5-dioxo-2,3-dihydro-1H-benzo[e][1,4]diazepin-4(5H)-yl)methyl)-N-(5-morpholinopyridin-2-yl)benzamide] and C[C@@H]1C(=O)Nc2cc(Cl)ccc2C(=O)N1Cc1ccc(C(=O)Nc2ccc(N3CCN(C)CC3)cn2)cc1 [Example 4bh, (R)-4-((8-chloro-3-methyl-2,5-dioxo-2,3-dihydro-1H-benzo[e][1,4]diazepin-4(5H)-yl)methyl)-N-(5-(4-methylpiperazin-1-yl)pyridin-2-yl)benzamide] fall in the same range of IC50: 100 to 999 nM for the first, 100 to 999 nM for the second.

First: C[C@@H]1C(=O)Nc2cc(Cl)ccc2C(=O)N1Cc1ccc(C(=O)Nc2ccc(N3CCN(C(=O)OC(C)(C)C)CC3)cn2)cc1 [Example 4bg, (R)-tert-butyl 4-(6-(4-((8-chloro-3-methyl-2,5-dioxo-2,3-dihydro-1H-benzo[e][1,4]diazepin-4(5H)-yl)methyl)benzamido)pyridin-3-yl)piperazine-1-carboxylate]
Second: COc1ccc(NC(=O)c2ccc(CN3C(=O)c4ccc(Cl)cc4NC(=O)[C@H]3Cc3ccccn3)cc2)nn1 [Example 4bm, (R)-4-((8-chloro-2,5-dioxo-3-(pyridin-2-ylmethyl)-2,3-dihydro-1H-benzo[e][1,4]diazepin-4(5H)-yl)methyl)-N-(6-methoxypyridazin-3-yl)benzamide]
The IC50 of the first is higher: 100 to 999 nM for the first, less than 100 nM for the second.

Cc1nnc(NC(=O)c2ccc(CN3C(=O)c4ccc(Cl)cc4NC(=O)[C@H]3Cc3ccccn3)cc2)[nH]1 [Example 4bj, (R)-4-((8-chloro-2,5-dioxo-3-(pyridin-2-ylmethyl)-2,3-dihydro-1H-benzo[e][1,4]diazepin-4(5H)-yl)methyl)-N-(5-methyl-4H-1,2,4-triazol-3-yl)benzamide] and Cc1nnc(NC(=O)c2ccc(CN3C(=O)c4ccc(Cl)cc4NC(=O)[C@H]3Cc3ccccn3)cc2)s1 [Example 4bn, (R)-4-((8-chloro-2,5-dioxo-3-(pyridin-2-ylmethyl)-2,3-dihydro-1H-benzo[e][1,4]diazepin-4(5H)-yl)methyl)-N-(5-methyl-1,3,4-thiadiazol-2-yl)benzamide] fall in the same range of IC50: 1000 to 10000 nM for the first, 1000 to 10000 nM for the second.

First: Cc1nsc(NC(=O)c2ccc(CN3C(=O)c4ccc(Cl)cc4NC(=O)[C@H]3Cc3ccccn3)cc2)n1 [Example 4bk, (R)-4-((8-chloro-2,5-dioxo-3-(pyridin-2-ylmethyl)-2,3-dihydro-1H-benzo[e][1,4]diazepin-4(5H)-yl)methyl)-N-(3-methyl-1,2,4-thiadiazol-5-yl)benzamide]
Second: Cc1cnc(NC(=O)c2ccc(CN3C(=O)c4ccc(Cl)cc4NC(=O)[C@H]3Cc3ccccn3)cc2)s1 [Example 4bw, (R)-4-((8-chloro-2,5-dioxo-3-(pyridin-2-ylmethyl)-2,3-dihydro-1H-benzo[e][1,4]diazepin-4(5H)-yl)methyl)-N-(5-methylthiazol-2-yl)benzamide]
The IC50 of the first is higher: 10000 to 35000 nM for the first, less than 100 nM for the second.

O=C(Nc1cccnn1)c1ccc(CN2C(=O)c3ccc(Cl)cc3NC(=O)[C@H]2Cc2ccccn2)cc1 [Example 4bl, (R)-4-((8-chloro-2,5-dioxo-3-(pyridin-2-ylmethyl)-2,3-dihydro-1H-benzo[e][1,4]diazepin-4(5H)-yl)methyl)-N-(pyridazin-3-yl)benzamide] and O=C(Nc1nncs1)c1ccc(CN2C(=O)c3ccc(Cl)cc3NC(=O)[C@H]2Cc2ccccn2)cc1 [Example 4bp, (R)-4-((8-chloro-2,5-dioxo-3-(pyridin-2-ylmethyl)-2,3-dihydro-1H-benzo[e][1,4]diazepin-4(5H)-yl)methyl)-N-(1,3,4-thiadiazol-2-yl)benzamide] fall in the same range of IC50: 100 to 999 nM for the first, 100 to 999 nM for the second.

Compared with Cc1nnc(NC(=O)c2ccc(CN3C(=O)c4ccc(Cl)cc4NC(=O)[C@H]3Cc3ccccn3)cc2)o1 [Example 4bo, (R)-4-((8-chloro-2,5-dioxo-3-(pyridin-2-ylmethyl)-2,3-dihydro-1H-benzo[e][1,4]diazepin-4(5H)-yl)methyl)-N-(5-methyl-1,3,4-oxadiazol-2-yl)benzamide], Cc1ccc(NC(=O)c2ccc(CN3C(=O)c4ccc(Cl)cc4NC(=O)[C@H]3Cc3ccccn3)s2)nc1 [Example 4bs, (R)-5-((8-chloro-2,5-dioxo-3-(pyridin-2-ylmethyl)-2,3-dihydro-1H-benzo[e][1,4]diazepin-4(5H)-yl)methyl)-N-(5-methylpyridin-2-yl)thiophene-2-carboxamide] is higher in IC50: less than 100 nM for the first, 100 to 999 nM for the second. The first is the more potent here.

O=C(Nc1ccccn1)c1ccc(CN2C(=O)c3ccc(Cl)cc3NC(=O)[C@H]2Cc2ccccn2)s1 [Example 4bq, (R)-5-((8-chloro-2,5-dioxo-3-(pyridin-2-ylmethyl)-2,3-dihydro-1H-benzo[e][1,4]diazepin-4(5H)-yl)methyl)-N-(pyridin-2-yl)thiophene-2-carboxamide] and COc1ccc(NC(=O)c2ccc(CN3C(=O)c4ccc(Cl)cc4NC(=O)[C@H]3Cc3ccccn3)s2)nc1 [Example 4br, (R)-5-((8-chloro-2,5-dioxo-3-(pyridin-2-ylmethyl)-2,3-dihydro-1H-benzo[e][1,4]diazepin-4(5H)-yl)methyl)-N-(5-methoxypyridin-2-yl)thiophene-2-carboxamide] fall in the same range of IC50: 100 to 999 nM for the first, 100 to 999 nM for the second.

First: O=C(Nc1ccc(C(F)(F)F)cn1)c1ccc(CN2C(=O)c3ccc(Cl)cc3NC(=O)[C@H]2Cc2ccccn2)s1 [Example 4bt, (R)-5-((8-chloro-2,5-dioxo-3-(pyridin-2-ylmethyl)-2,3-dihydro-1H-benzo[e][1,4]diazepin-4(5H)-yl)methyl)-N-(5-(trifluoromethyl)pyridin-2-yl)thiophene-2-carboxamide]
Second: O=C1Nc2cc(Cl)ccc2C(=O)N(C[C@H]2CC[C@H](C(=O)Nc3ccc(F)cn3)CC2)[C@@H]1Cc1ccccn1 [Example 4ca, (1R,4r)-4-(((R)-8-chloro-2,5-dioxo-3-(pyridin-2-ylmethyl)-2,3-dihydro-1H-benzo[e][1,4]diazepin-4(5H)-yl)methyl)-N-(5-fluoropyridin-2-yl)cyclohexanecarboxamide]
The IC50 of the first is higher: 1000 to 10000 nM for the first, less than 100 nM for the second.

First: CC(=NO)NC(=O)c1ccc(CN2C(=O)c3ccc(Cl)cc3NC(=O)[C@H]2Cc2cccnc2)cc1 [Example 4bv, (R)-4-((8-chloro-2,5-dioxo-3-(pyridin-3-ylmethyl)-2,3-dihydro-1H-benzo[e][1,4]diazepin-4(5H)-yl)methyl)-N-(1-(hydroxyimino)ethyl)benzamide]
Second: O=C(Nc1nccs1)c1ccc(CN2C(=O)c3ccc(Cl)cc3NC(=O)[C@H]2Cc2cccnc2)cc1 [Example 4c, (R)-4-((8-chloro-2,5-dioxo-3-(pyridin-3-ylmethyl)-2,3-dihydro-1H-benzo[e][1,4]diazepin-4(5H)-yl)methyl)-N-(thiazol-2-yl)benzamide]
The IC50 of the first is higher: 100 to 999 nM for the first, less than 100 nM for the second.

In the case of Cc1ccc(NC(=O)[C@H]2CC[C@H](CN3C(=O)c4ccc(Cl)cc4NC(=O)[C@H]3Cc3ccccn3)CC2)nc1 [Example 4bx, (1R,4r)-4-(((R)-8-chloro-2,5-dioxo-3-(pyridin-2-ylmethyl)-2,3-dihydro-1H-benzo[e][1,4]diazepin-4(5H)-yl)methyl)-N-(5-methylpyridin-2-yl)cyclohexanecarboxamide], the IC50 is reported as less than 100 nM.

Same assay, conditions: read-out: TcdB UDP-Glucose hydrolysis activity (IC50, coded); UDP-Glucose hydrolysis assay, fluorescence polarization

With COc1ccc(NC(=O)C2CCC(CN3C(=O)c4ccc(Cl)cc4NC(=O)[C@H]3Cc3ccccn3)CC2)nc1 (stereo partly drawn) [Example 4bz, (1R,4r)-4-(((R)-8-chloro-2,5-dioxo-3-(pyridin-2-ylmethyl)-2,3-dihydro-1H-benzo[e][1,4]diazepin-4(5H)-yl)methyl)-N-(5-methoxypyridin-2-yl)cyclohexanecarboxamide] the IC50 was less than 100 nM.
